Data published in publication PMC5799093, “Proceedings of Réanimation 2018, the French Intensive Care Society International Congress” (Annals of Intensive Care, 2018).
Where two headings read alike, the source gives them in different places.

Legend:
glucocorticoid receptors = glucocorticoid receptors (Homo sapiens, UniProt P04150)
[1] = Piperacillin population pharmacokinetics in critically ill children; format: in vivo; conditions: median (range), one compartment model, n = 50 children
Text: Pharmacokinetics were described using the non-linear mixed effect modelling software MONOLIX.

[2] = Residual serum concentrations of piperacillin and amoxicillin and neurological disorders (HPLC MS); format: in vivo, critically ill patients
Experimental: Patients and methods: This study was carried out retrospectively during the period 01.01.2015 to 08.02.2017, in patients hospitalized in the medical ICU-CHU Rouen with PTM.

[3] = test system: Stenotrophomonas maltophilia VAP; assay: Risk factors for Stenotrophomonas maltophilia VAP, matched analysis; format: in vivo, patients; conditions: exposure during the week before VAP; 93 cases, 380 controls
Experimental: Patients and methods: We conducted a retrospective analysis of prospectively collected data in a multicenter database in France. VAP was determined as microbiologically documented pneumonia occurring after at least two days of mechanical ventilation. All patients admitted from 2000 to 2015 presenting at least one episode of VAP were included. SM-VAP were compared with VAP due to other micro-organisms (VAP-other). To assess risk factors and day-30 (D30) mortality, SM-VAP were matched (1 − n) with VAP-other based on center, time from ICU admission to VAP occurrence, and SAPS II score.

Enterococcus faecalis = assay: Resistance in nosocomial urinary tract infection: Enterococcus faecalis (P-219); conditions: January 2010 - June 2014
[4] = test system: acutely poisoned ventilated patients; conditions: human, in vivo
Acinetobacter baumannii = format: cell-based; conditions: blood culture isolates 2012–2016
Experimental: (§1) Patients and methods: From January 2012 to December 2016, a total of 2,182 non repetitive strains were isolated from blood cultures. Incubation of blood culture vials and the detection of bacterial growth were performed by the BACTEC system. All Isolated organisms were identified on the basis of standard microbiological techniques. Antibiotic susceptibility testing was carried out by the agar disk diffusion method, and susceptibility results were interpreted using clinical breakpoints according to CA-SFM 2013 and 2015 guidelines. Data were analyzed using the SIR-system. Minimum inhibitory concentrations of colistin, imipenem and vancomycin were determined using the Etest® method (bioMérieux).

Pseudomonas = conditions: January 2010 - June 2014
[5] = Beta-lactam plasma concentrations in children with severe sepsis or septic shock (HPLC); conditions: current standard dosing
tramadol-overdosed rats = assay: Antidotes for tramadol overdose: seizures, plethysmography, sedation, EEG; conditions: for tramadol-induced respiratory depression / ventilation: whole-body plethysmography
[6] = test system: carbapenemase-producing Enterobacteriaceae; assay: Antibiotic susceptibility of Enterobacteriaceae with decreased susceptibility to carbapenems; format: cell-based
Escherichia-coli = assay: Resistance in nosocomial urinary tract infection: Escherichia-coli (P-219); conditions: January 2010 - June 2014
Staphylococcus aureus [7] = format: cell-based; conditions: blood culture isolates 2012–2016
Experimental: as §1

[8] = Norepinephrine in pediatric septic shock, mortality (P-169); format: in vivo, human (children)
[9] = test system: cardiogenic shock patients; assay: OPTIMA CC double-blind randomized trial, epinephrine vs norepinephrine in cardiogenic shock after myocardial infarction; format: in vivo
Text: Patients and methods: Multicenter, double-blind, randomized trial in 8 french ICU. Cardiogenic shock patients due to myocardial infarction treated by PCI were randomized to receive epinephrine or norepinephrine to maintain MAP at 70 mmHg. Dobutamine was introduced at the physician discretion according to a combination of parameters—echocardiographic parameters, cardiac index, lactate clearance, SVO2 and Swan-Ganz derived parameters.

[10] = test system: E.coli lipopolysaccharide-challenged rats; assay: Sodium lactate vs 0.9% NaCl in rat endotoxin shock: fluid balance and capillary leak; format: in vivo
Experimental: Patients and methods: The sixteen sedated, mechanically ventilated rats were challenged with intravenous infusion of E.coli lipopolysaccharide (10 mg/kg). Two groups of eight animals were randomised to receive a continous perfusion (5 mL/kg/h) of sodium lactate 11.2% (treatment group) or 0.9% NaCl (control group). In order to inject the same caloric load in the two groups, a 4.35 mL/kg/h of either water of 10% dextrose solution were perfused. Mean arterial pressure, heart rate, urine ouput were measured over a 210 min period. An echocardiography was then performed and Evans Blue (1%, 30 mg/kg) was intravenously injected 30 min before sacrifice. Organs were withdrawn and organs wet dry ratio and Evans blue dye extravasation were measured.

[11] = Hemodynamic and metabolic effects of molar sodium lactate infusion in critically ill patients (P-135); format: in vivo, human
Experimental: Patients and methods: This was a retrospective study performed in a large University Hospital. All patients receiving the molecule were included in the analysis. Indication for sodium lactate, dose, and modality of administration were collected. We also collected clinical and biological variables before sodium lactate infusion, after 6 h (H6), and after 24 h (H24). An analysis of the evolution of these variables at H6 and H24 was performed.

Acinetobacter Baumanii = assay: Resistance of nosocomial infection isolates: Acinetobacter Baumanii (P-222); format: cell-based; conditions: n = 39 isolates, 2016
Text: Patients and methods: This was a retrospective study conducted within a 22-bed medical ICU of a Tunisian teaching hospital (301 beds) carried from January 1st to December 31, 2016. We recorded demographic patients’ characteristics which ICU’s stay was complicated with at least one NI. Then we described pathogens and microbiological specificities of NI.

Staphylococcus aureus [12] = assay: Resistance in nosocomial urinary tract infection: Staphylococcus aureus (P-219); conditions: January 2010 - June 2014
[13] = not given; remark: listed apart in the source
[14] = test system: patients after out-of-hospital cardiac arrest
[15] = test system: diaphragm contraction and workload; assay: Diaphragmatic electromyography after diazepam / buprenorphine; format: in vivo, Sprague–Dawley rat; conditions: 30 mg kg BUP intraperitoneally, 20 mg kg DZP subcutaneously
Experimental: Patients and methods: 11C-BUP was administered intravenously, 30 mg kg unlabeled BUP intraperitoneally and 20 mg kg DZP subcutaneously.

[16] = test system: Farnesoid X receptor (FXR); assay: LPS sepsis in CKD mice treated with sevelamer (P-138); format: in vivo, mice (C57BL6 J)
Experimental: Patients and methods: Sepsis was provoked by the injection of 0.5 mg kg of LPS 6 weeks after the creation of CKD. The CKD was created by unilateral nephrectomy associated with contralateral thermocauterisation. The mice (C57BL6 J) were randomly assigned to one of the following groups—sham placebo, CKD placebo, sham LPS or CKD LPS. A fifth group of CKD LPS mice received a treatment with sevelamer (a bile acid sequestrant) during 6 weeks. Survival of the animals, serum biochemistry and molecular biology in the kidney were performed after sacrifice.

Chain of glucocorticoid receptors (P04150 whole entry): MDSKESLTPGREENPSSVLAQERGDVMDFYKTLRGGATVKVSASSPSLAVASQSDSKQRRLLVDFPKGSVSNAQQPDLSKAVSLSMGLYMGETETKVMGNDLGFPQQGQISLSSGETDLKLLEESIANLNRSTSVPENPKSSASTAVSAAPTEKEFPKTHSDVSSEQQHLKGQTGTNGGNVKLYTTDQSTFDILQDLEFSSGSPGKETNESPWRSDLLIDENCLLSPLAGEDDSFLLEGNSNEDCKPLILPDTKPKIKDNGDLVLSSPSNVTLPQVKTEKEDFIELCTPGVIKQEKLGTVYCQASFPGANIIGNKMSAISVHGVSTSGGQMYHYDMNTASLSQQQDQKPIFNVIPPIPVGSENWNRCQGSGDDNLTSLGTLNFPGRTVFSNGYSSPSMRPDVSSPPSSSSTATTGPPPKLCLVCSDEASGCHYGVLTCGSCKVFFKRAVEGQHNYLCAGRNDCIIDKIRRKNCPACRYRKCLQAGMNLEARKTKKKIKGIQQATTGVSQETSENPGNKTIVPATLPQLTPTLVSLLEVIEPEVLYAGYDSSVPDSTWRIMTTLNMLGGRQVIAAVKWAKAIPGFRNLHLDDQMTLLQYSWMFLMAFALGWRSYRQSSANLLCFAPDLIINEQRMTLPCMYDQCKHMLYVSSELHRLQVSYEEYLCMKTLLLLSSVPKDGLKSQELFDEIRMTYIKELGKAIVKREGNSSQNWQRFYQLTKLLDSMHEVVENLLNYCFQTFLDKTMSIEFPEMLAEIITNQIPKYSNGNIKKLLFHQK

## C[C@H]1C[C@H]2[C@@H]3CCC4=CC(=O)C=C[C@]4(C)[C@@]3(F)[C@@H](O)C[C@]2(C)[C@@]1(O)C(=O)CO [Betamethasone]
Glucocorticoid receptors; non-septic critically ill
  corticoresistance (mean blanching score < 2): 56%
Glucocorticoid receptors; septic shock, 10 µl cream on 3 cm^2, read at 24 h
  corticoresistance (mean blanching score < 2): 78%

## CCN1CCN(C(=O)N[C@@H](C(=O)N[C@@H]2C(=O)N3[C@@H]2SC(C)(C)[C@@H]3C(=O)O)c2ccccc2)C(=O)C1=O [Piperacillin]
[1]; MONOLIX, intermittent infusions
  clearance: 3 (0.71–10) L h^−1
[1]
  volume of distribution: 3.8 (0.72–25.8) L
[2]; 80% specificity and sensitivity
  residual concentration associated with occurrence of neurological disorders: greater than 40 mg L^−1
[2]; HPLC MS
  residual serum concentration, patients with neurological disorders or wakefulness delays: 98.2 ± 16.8 mg L^−1
  residual serum concentration, patients without neurological disorders: 21.6 ± 4.0 mg L^−1

## C[C@]1(Cn2ccnn2)[C@H](C(=O)O)N2C(=O)C[C@H]2S1(=O)=O [Tazobactam]
[3]
  OR for SM-VAP, univariate analysis: 1.75 [1.04; 2.94]

## CC1(C)S[C@@H]2[C@H](NC(=O)[C@H](N)c3ccccc3)C(=O)N2[C@H]1C(=O)O [ampicillin]
Enterococcus faecalis
  resistance: no resistance

## CN1[C@@H]2CC[C@H]1C[C@@H](OC(=O)C(CO)c1ccccc1)C2 (some centres unmarked) [atropine]
[4]
  OR, independent risk factor for delirium: 2.333

## CC(C)(O/N=C(\C(=O)N[C@@H]1C(=O)N2C(C(=O)[O-])=C(C[n+]3ccccc3)CS[C@H]12)c1csc(N)n1)C(=O)O [ceftazidime]
Pseudomonas aeruginosa
  resistance rate: 39%
Klebsiella pneumoniae
  resistance rate: 70%
Acinetobacter baumannii
  resistance rate: Eighty per cent
Pseudomonas
  resistant: 61%
[5]
  patients with insufficient plasma concentration: 0%

## O=C(O)c1cn(C2CC2)c2cc(N3CCNCC3)c(F)cc2c1=O [ciprofloxacin]
[3]
  OR for SM-VAP, univariate analysis: 1.77 [0.92; 3.39]

## CN1C(=O)CN=C(c2ccccc2)c2cc(Cl)ccc21 [diazepam]
tramadol-overdosed rats; rat, in vivo
  sedation depth: significantly deepened rat sedation
tramadol-overdosed rats
  tramadol-induced respiratory depression / ventilation: without improving ventilation

## C[C@@H](O)[C@H]1C(=O)N2C(C(=O)O)=C(S[C@@H]3CN[C@H](C(=O)Nc4cccc(C(=O)O)c4)C3)[C@H](C)[C@H]12 [ertapenem]
[6]; 39 selected bacteria
  strains with MIC > 1 mg l: 95%
Escherichia-coli
  resistance: without resistance

## CC(=O)NC[C@H]1CN(c2ccc(N3CCOCC3)c(F)c2)C(=O)O1 [linezolid]
Staphylococcus aureus [7]
  resistance rate: 1%

## C=CCN1CC[C@]23c4c5ccc(O)c4O[C@H]2C(=O)CC[C@@]3(O)[C@H]1C5 [naloxone]
tramadol-overdosed rats
  tramadol-induced respiratory depression / ventilation: reversed tramadol-induced respiratory depression

## NC[C@H](O)c1ccc(O)c(O)c1 [norepinephrine]
[8]; 95% confidence interval 1.1–2.0, p = 0.02
  OR of maximal dose for mortality: 1.4
[8]; 191 children with septic shock treated with norepinephrine
  global mortality rate: 28.8%
[8]; in vivo
  mortality rate in preterm neonates: 35.3%
[8]; when dose reached 0.75 µg kg per minute
  mortality: 46.2%
[9]; H2 to H24
  arterial pH and lactate: arterial pH increased and lactate level decreased
[9]; in vivo
  ECMO use: 3%
  cardiac double product (surrogate of myocardial oxygen consumption): did not change
  heart rate evolution: did not change
  incidence of arrhythmia: 33%
  mortality: 37%
[9]; titrated to MAP 70 mmHg, epinephrine n = 27, norepinephrine n = 30
  incidence of refractory shock: 7%

## CC(O)C(=O)[O-].[Na+] (centres unmarked) [sodium lactate]
[10]; after sodium lactate infusion
  hemodynamics parameters: not significantly enhanced
[10]; sodium lactate 11.2% 5 mL/kg/h vs 0.9% NaCl, LPS 10 mg/kg, 210 min
  fluid balance, organs wet dry ratio and Evans blue dye extravasation: not significantly improved
[11]; 6 h period following initiation, p = 0.02
  diuresis: increase
[11]; at H6 (p = 0.009) and H24 (p = 0.003), 250 ml infusion, 104 patients
  mean arterial pressure: significant increase
[11]; at H6 and H24, all p < 0.0001
  pH, bicarbonate, base excess, and sodium: increase
[11]; at H24
  patients with plasma sodium >= 150 mmol l and pH >= 7.50: 5%
[11]; at H24, p = 0.002
  catecholamine dose: decrease
[11]; at H24, p = 0.05
  heart rate: decrease

## CN(C)c1cc(NC(=O)CNC(C)(C)C)c(O)c2c1C[C@H]1C[C@H]3[C@H](N(C)C)C(O)=C(C(N)=O)C(=O)[C@@]3(O)C(O)=C1C2=O [tigecycline]
[6]; colistin excepting with Proteus
  susceptibility: 63%
Staphylococcus aureus [7]
  resistance rate: 15%

## CN(C)c1cc(NC(=O)CNC(C)(C)C)c(O)c2c1C[C@H]1C[C@H]3[C@H](N(C)C)C(=O)C(C(N)=O)=C(O)[C@@]3(O)C(=O)C1=C2O [tygecycline]
Acinetobacter Baumanii
  resistance: 100%

## CN[C@H](CC(C)C)C(=O)N[C@H]1C(=O)N[C@@H](CC(N)=O)C(=O)N[C@H]2C(=O)N[C@H]3C(=O)N[C@H](C(=O)N[C@H](C(=O)O)c4cc(O)cc(O)c4-c4cc3ccc4O)[C@H](O)c3ccc(c(Cl)c3)Oc3cc2cc(c3O[C@@H]2O[C@H](CO)[C@@H](O)[C@H](O)[C@H]2O[C@H]2C[C@](C)(N)[C@H](O)[C@H](C)O2)Oc2ccc(cc2Cl)[C@H]1O [vancomycin]
Enterococcus faecalis
  resistance: no resistance
Staphylococcus aureus [12]
  resistance: without any resistance

## Amoxicillin clavulanic acid [AMC]
community-acquired peritonitis
  efficiency: 77%
In vivo
  impact when AMC was inadequate: no impact on morbidity and mortality

## Cyclosporine A [CsA]
[13]; D0 and D1, p = ns
  IL-1, IL-6, IL-8 and TNFα levels versus Control group: did not significantly differ
[13]; p < 0.05
  level of IL 10 at admission versus Control group: significantly lower

## amoxicillin-clavulanic acid
[14]; IC 95% [0.315 + 0.946], p = 0.031
  HR for early VAP vs placebo: 0.546
[14]; IV 1 g 200 mg three times a day for 2 days, n = 99
  incidence of early VAP (< 7 days): 19.2%
[14]; n = 99
  Day 28 mortality: 41.4%
  late VAP (> 7 days), number of patients: 4

## buprenorphine
[15]
  diaphragm contraction (first 60 min AUC): significantly increased
  diaphragm workload (first 60 min AUC): significantly increased

## sevelamer
[16]; sevelamer 6 weeks before LPS
  RNA expression of FXR in the kidney versus CKD LPS group: increased the RNA expression of FXR
  plasmatic concentration of Il1b, TNFa versus CKD LPS group: lower plasmatic concentration
[16]; sevelamer 6 weeks before LPS 0.5 mg kg
  survival of CKD LPS animals: improved the survival
